The text below walks through data of US11267802B2 (BEBETTER MED INC., priority 2015, dated 2022).

One series concerns the target T1, EGFR T790M/L858R (Homo sapiens, UniProt P00533, L858R/T790M).
T1 construct: purchased Invitrogen PR8911A
Briefly: Mutant EGFR T790M/L858R activity inhibition assay (Caliper mobility shift). The series is classed as biochemical. Particulars: read-out: enzyme activity inhibition (IC50) EGFR T790M/L858R. Here is the method: The assay procedure is as follows. […] 5 μl of the compound dissolved in 10% DMSO at a concentration of 5-fold of the final reaction concentration was added to a 384 well plate. 5 μl of 10% DMSO was used in a no-compound control well, while 5 μl of a kinase buffer was used in a no-enzyme activity control well. […] The conversion rate was read on Caliper EZ Reader II (Caliper Life Sciences). The conversion rate was then converted to inhibitory rate.
As used herein, “max” refers to the conversion rate of the DMSO no-compound control well, and “min” refers to the conversion rate of the no-enzyme activity control well. A curve was obtained by plotting the inhibitory rate as a function of the compound concentration. The XLFit excel add-in version 4.3.1 software was used to fit the curve and calculate the IC50. Inhibitory rate %=(max−conversion rate)/(max−min)×100.

A further series relates to LOVO. Put plainly: Inhibition assay on tumor cell proliferation (CellTiter-Glo), LOVO. Type of series: cell-based, Human. The conditions noted are these: Homo sapiens; LOVO (wild-type EGFR), 72 hours, 10% bovine serum. Here is the method:
(§1) By using a CellTiter-Glo luminescence cell viability test kit (Promega, # G7572), the content of adenosine triphosphate (ATP) was determined to assess the cell viability.
(§2) Human colon cancer cell line LOVO and human non-small-cell lung cancer H358 express wild-type EGFR. Human non-small-cell lung cancer cell line HCC827 carries deletion mutation in exon 19 (ex19del). Those cell lines are purchased from Shanghai Fudan IBS Cell Resource Center and American Tissue Culture Collection (ATCC).
(§3) The assay procedure is as follows. The cells in a cell culture plate were digested with a pancreatic enzyme, re-suspended in a DPBS culture medium, and had the cell density counted by Scepter automated cytometer (Millipore # PHCC00000). The cells were diluted to a solution of 44,000 cells per ml. The cell solution with adjusted density was added to the cell assay plate at 90 microliters per well. The plate was placed in an incubator with 5% CO2 at 37° C. for 24 hours of incubation, and then added with different concentrations of subject compounds. The cells were incubated for 72 hours with the compounds in presence of 10% bovine serum. The content of ATP was determined by a CellTiter-Glo® Luminescent Cell Viability Assay kit (see the manufacturer's instruction for details) to evaluate cell-growth inhibition.
(§4) Briefly, 30 μl of CellTiter-Glo® reagent was added to each well, and then shaken for 10 minutes to induce cell lysis. The fluorescent signal was detected and recorded by Fluoroskan Ascent FL (Thermo). The max signal value was obtained from the cells treated by dimethyl sulfoxide for 72 hours. The min signal value was obtained from the medium alone (the number of the cells was 0). Inhibitory rate %=(max signal value−compound signal value)/(max signal value−min signal value)×100. The data was processed by GraphPad Prism V5.0 software (GraphPad Software, San Diego, Calif.). Sigmoidal dose-response curve fitting was performed to calculate the IC50 value.

The test system of another series is H358. Briefly: Inhibition assay on tumor cell proliferation (CellTiter-Glo), H358. The series is classed as cell-based, Human. Particulars: Homo sapiens, NCI-H358; H358 (wild-type EGFR), 72 hours, 10% bovine serum. How it is done:
as §1, §2, §3, §4

A further series has as its system H1975. Put plainly: Inhibition assay on tumor cell proliferation (CellTiter-Glo), H1975. Type of series: cell-based, Human. The conditions noted are these: Homo sapiens, NCI-H1975; H1975 (L858R and T790M EGFR double mutation), 72 hours, 10% bovine serum.

Where only a bound is given, the exact number is not on record here.

T1 sequence (P00533 25-1210 T790M/L858R): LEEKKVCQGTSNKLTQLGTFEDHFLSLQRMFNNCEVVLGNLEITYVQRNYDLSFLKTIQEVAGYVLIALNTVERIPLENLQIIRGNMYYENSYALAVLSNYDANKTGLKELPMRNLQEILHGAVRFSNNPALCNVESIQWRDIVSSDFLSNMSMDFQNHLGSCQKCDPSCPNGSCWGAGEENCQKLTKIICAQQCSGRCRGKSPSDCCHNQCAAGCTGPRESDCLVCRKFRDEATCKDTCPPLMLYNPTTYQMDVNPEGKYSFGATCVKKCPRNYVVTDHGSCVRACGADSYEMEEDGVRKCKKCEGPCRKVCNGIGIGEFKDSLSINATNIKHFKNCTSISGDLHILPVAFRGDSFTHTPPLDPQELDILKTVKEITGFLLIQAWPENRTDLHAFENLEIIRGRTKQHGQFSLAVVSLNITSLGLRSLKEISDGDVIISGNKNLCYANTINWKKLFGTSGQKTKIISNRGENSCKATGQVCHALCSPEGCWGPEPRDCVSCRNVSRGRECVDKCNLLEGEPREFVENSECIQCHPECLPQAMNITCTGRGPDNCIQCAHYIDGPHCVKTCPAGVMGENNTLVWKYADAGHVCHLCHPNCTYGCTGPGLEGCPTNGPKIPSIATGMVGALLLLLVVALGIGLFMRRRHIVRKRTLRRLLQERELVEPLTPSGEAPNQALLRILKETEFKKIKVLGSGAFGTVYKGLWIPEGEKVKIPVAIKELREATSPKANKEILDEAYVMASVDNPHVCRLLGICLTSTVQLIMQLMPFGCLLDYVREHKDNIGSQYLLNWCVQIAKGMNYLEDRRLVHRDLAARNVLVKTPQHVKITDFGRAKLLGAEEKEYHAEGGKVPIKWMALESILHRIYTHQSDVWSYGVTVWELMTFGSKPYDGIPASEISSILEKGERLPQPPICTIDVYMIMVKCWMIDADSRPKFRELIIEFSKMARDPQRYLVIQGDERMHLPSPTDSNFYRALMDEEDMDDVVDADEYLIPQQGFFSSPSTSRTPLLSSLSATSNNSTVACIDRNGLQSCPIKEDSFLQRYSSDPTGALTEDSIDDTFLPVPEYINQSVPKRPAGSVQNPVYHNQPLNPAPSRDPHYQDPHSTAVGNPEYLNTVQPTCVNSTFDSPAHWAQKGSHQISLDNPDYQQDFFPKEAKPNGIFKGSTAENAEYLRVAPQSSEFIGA

As to `C=CC(=O)Nc1cc(Nc2nccc(-n3ccc4ccccc43)n2)c(OC)cc1N1CC[C@@H](N(C)C)C1` [Compound 79, (R)—N-(5-((4-(1H-indol-1-yl)pyrimidin-2-yl)amino)-2-(3-(dimethylamino)pyrrolidin-1-yl)-4-methoxyphenyl)acrylamide], the melting point is 161 to 162 °C. Further, the IC50 on EGFR T790M/L858R is under 1 nM. The compound further returned an IC50 in the series on LOVO of over 1000 nM. Moreover, the IC50 in the series with H358 was over 1000 nM. Also, the IC50 in the series with H1975 lay in the range of 50 to 100 nM.
For the compound `C=CC(=O)Nc1cc(Nc2nccc(-n3cc(Cl)c4ccccc43)n2)c(OC)cc1N(C)CCN(C)C` [Compound 46, N-(5-((4-(3-chloro-1H-indol-1-yl)pyrimidin-2-yl)amino)-2-((2-(dimethylamino)ethyl)(methyl)amino)-4-methoxyphenyl)acrylamide], the melting point lay within 142 to 144 °C. On EGFR T790M/L858R, the IC50 fell in the range of 1 to 10 nM. For the same compound, in the series with LOVO, the IC50 was over 1000 nM. For the same compound, the IC50 with H358 was over 1000 nM. Further, the IC50 with H1975 fell in the range of 10 to 50 nM.
Regarding `CC#CC(=O)Nc1cc(Nc2nccc(-n3ccc4ccccc43)n2)c(OC)cc1N(C)CCN(C)C` [Compound 73, N-(5-((4-(1H-indol-1-yl)pyrimidin-2-yl)amino)-2-((2-(dimethylamino)ethyl)(methyl)amino)-4-methoxyphenyl)but-2-ynamide], the melting point is 189.7 to 191.8 °C. Also, the IC50 at EGFR T790M/L858R is 1 to 10 nM. Moreover, in the series with LOVO, the IC50 was over 1000 nM. The IC50 in the series on H358 was over 1000 nM. Besides, in the series with H1975, the IC50 fell in the range of 50 to 100 nM.
Take `C=CC(=O)Nc1cc(Nc2nccc(-n3ccc4cc(O)ccc43)n2)c(OC)cc1N(C)CCN(C)C` [Compound 36, N-(2-((2-(dimethylamino)ethyl)(methyl)amino)-5-((4-(5-hydroxy-1H-indol-1-yl)pyrimidin-2-yl)amino)-4-methoxyphenyl)acrylamide]: the melting point was 218 to 219 °C. The IC50 on EGFR T790M/L858R was under 1 nM. Besides, the IC50 with LOVO was over 1000 nM. Besides, the IC50 in the series on H358 was 100 to 1000 nM. In the series on H1975, this compound came in with an IC50 of under 10 nM.
Take `C=CC(=O)Nc1cc(Nc2nccc(-n3ccc4cc(F)ccc43)n2)c(OC)cc1N(C)CCN(C)C` [Compound 28, N-(2-((2-(dimethylamino)ethyl)(methyl)amino)-5-((4-(5-fluoro-1H-indol-1-yl)pyrimidin-2-yl)amino)-4-methoxyphenyl)acrylamide]: the melting point was in the range of 168 to 170 °C. Further, the IC50 on EGFR T790M/L858R is under 1 nM. For the same compound, in the series with LOVO, the IC50 is over 1000 nM. Moreover, the IC50 in the series with H358 lay in the range of 100 to 1000 nM. In the series with H1975, this compound registered an IC50 of under 10 nM.
As for `COc1cc(N(C)CCN(C)C)c(NC(=O)/C=C/CN(C)C)cc1Nc1nccc(-n2ccc3ccccc32)n1` [Compound 69, (E)-N-(5-((4-(1H-indol-1-yl)pyrimidin-2-yl)amino)-2-((2-(dimethylamino)ethyl)(methyl)amino)-4-methoxyphenyl)-4-(dimethylamino)but-2-enamide], the melting point lay within 116.2 to 118.1 °C. In addition, on EGFR T790M/L858R, the IC50 was under 1 nM. In the series on LOVO, this compound displayed an IC50 of 100 to 1000 nM. The compound also gave an IC50 in the series on H358 of 100 to 1000 nM. The compound further yielded an IC50 in the series with H1975 of 50 to 100 nM.
`C=CC(=O)Nc1cc(Nc2nccc(-n3ccc4c(F)cccc43)n2)c(OC)cc1N(C)CCN(C)C` [Compound 30, N-(2-((2-(dimethylamino)ethyl)(methyl)amino)-5-((4-(4-fluoro-1H-indol-1-yl)pyrimidin-2-yl)amino)-4-methoxyphenyl)acrylamide] showed a melting point of 165.5 to 166.5 °C. For the same compound, the IC50 on EGFR T790M/L858R was under 1 nM. The IC50 in the series with LOVO was over 1000 nM. The IC50 in the series with H358 lay in the range of 100 to 1000 nM. For the same compound, the IC50 in the series on H1975 was under 10 nM.
In turn, `C=CC(=O)Nc1cc(Nc2nccc(-n3ccc4ccccc43)n2)c(OC)cc1N1CC(N(C)C)C1` [Compound 77, N-(5-(4-(1H-indol-1-yl)pyrimidin-2-ylamino)-2-(3-(dimethylamino)azetidin-1-yl)-4-methoxyphenyl)acrylamide] had a melting point of 81 to 83 °C. Further, the IC50 on EGFR T790M/L858R lay in the range of 1 to 10 nM. The IC50 with LOVO was over 1000 nM. Besides, the IC50 in the series with H1975 is 10 to 50 nM.
In turn, `C=CC(=O)Nc1cc(Nc2nccc(-n3ccc4cc(C(N)=O)ccc43)n2)c(OC)cc1N(C)CCN(C)C` [Compound 41, 1-(2-((5-acrylamido-4-((2-(dimethylamino)ethyl)(methyl)amino)-2-methoxyphenyl)amino)pyrimidin-4-yl)-1H-indole-5-carboxamide] displayed a melting point of 121.3 to 125.1 °C. At EGFR T790M/L858R, the IC50 is under 1 nM. This compound gave an IC50 in the series on LOVO of over 1000 nM. Moreover, the IC50 in the series on H358 was 100 to 1000 nM. This compound gave an IC50 in the series on H1975 of under 10 nM.
`C=CC(=O)Nc1cc(Nc2nccc(-n3ccc4ccccc43)n2)c(OC)cc1N1CC[C@H](N(C)C)C1` [Compound 78, (S)—N-(5-((4-(1H-indol-1-yl)pyrimidin-2-yl)amino)-2-(3-(dimethylamino)pyrrolidin-1-yl)-4-methoxyphenyl)acrylamide] came in with a melting point of 161 to 162 °C. Moreover, the IC50 on EGFR T790M/L858R fell in the range of 1 to 10 nM. In the series with LOVO, the IC50 is over 1000 nM. Further, the IC50 in the series with H358 is over 1000 nM. Besides, the IC50 in the series with H1975 was in the range of 10 to 50 nM.
Regarding `C=CC(=O)Nc1cc(Nc2nccc(-n3ccc4ccc(F)cc43)n2)c(OC)cc1N(C)CCN(C)C` [Compound 29, N-(2-((2-(dimethylamino)ethyl)(methyl)amino)-5-((4-(6-fluoro-1H-indol-1-yl)pyrimidin-2-yl)amino)-4-methoxyphenyl)acrylamide], the melting point lay in the range of 164 to 165 °C. Moreover, the IC50 at EGFR T790M/L858R is under 1 nM. The IC50 in the series with LOVO is over 1000 nM. The IC50 in the series on H358 fell in the range of 100 to 1000 nM. Besides, the IC50 in the series on H1975 was under 10 nM.
`C=CC(=O)Nc1cc(Nc2nccc(-n3ccc4cc(OCCOC)ccc43)n2)c(OC)cc1N(C)CCN(C)C` [Compound 38, N-(2-((2-(dimethylamino)ethyl)(methyl)amino)-4-methoxy-5-((4-(5-(2-methoxyethoxy)-1H-indol-1-yl)pyrimidin-2-yl)amino)phenyl)acrylamide] yielded a melting point of 59 to 61 °C. On EGFR T790M/L858R, the IC50 is under 1 nM. Also, in the series on LOVO, the IC50 was over 1000 nM. Besides, the IC50 in the series on H358 was in the range of 100 to 1000 nM. Also, in the series with H1975, the IC50 was under 10 nM.
Turning to `C=CC(=O)Nc1cc(Nc2nccc(-n3ccc4cc(OCCO)ccc43)n2)c(OC)cc1N(C)CCN(C)C` [Compound 37, N-(2-((2-(dimethylamino)ethyl)(methyl)amino)-5-((4-(5-(2-hydroxyethoxy)-1H-indol-1-yl)pyrimidin-2-yl)amino)-4-methoxyphenyl)acrylamide], the melting point lay in the range of 65 to 67 °C. The IC50 on EGFR T790M/L858R is under 1 nM. Besides, in the series on LOVO, the IC50 is over 1000 nM. In the series with H358, this compound gave an IC50 of 100 to 1000 nM. In the series with H1975, the IC50 was under 10 nM.
Take `C=CC(=O)Nc1cc(Nc2nccc(-n3ccc4cc([N+](=O)[O-])ccc43)n2)c(OC)cc1N(C)CCN(C)C` [Compound 34, N-{2-[(2-Dimethylamino-ethyl)-methyl-amino]-4-methoxy-5-[4-(5-nitro-indol-1-yl)-pyrimidin-2-ylamino]-phenyl}-acryl amide]: the IC50 on EGFR T790M/L858R is 1 to 10 nM; in the series on LOVO it was over 1000 nM; in the series on H358 it was 100 to 1000 nM; in the series with H1975 it was under 10 nM.
